Assay results: ChEMBL document CHEMBL1201862, “PubChem BioAssay data set” (2004)
Activity calls are given as the source filed them.

Assays:
[1] = growth suppression of PTEN-null colon cells, dose response, cell-based, HCT116 PTEN knockout (AID 1047); format: functional;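 further: HCT116 colon tumor cells with PTEN knocked out; cells exposed to compound for 60 hours before readout; potency for loss of cell viability measured by luminescence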
[2] = biological target: T1, High affinity choline transporter 1 (Homo sapiens, UniProt Q9GZV3); assay: CHT inhibitors, dose response, cell-based, 5-point CRC, membrane potential dye (AID 504840); format: functional
T1 sequence (Q9GZV3 whole entry): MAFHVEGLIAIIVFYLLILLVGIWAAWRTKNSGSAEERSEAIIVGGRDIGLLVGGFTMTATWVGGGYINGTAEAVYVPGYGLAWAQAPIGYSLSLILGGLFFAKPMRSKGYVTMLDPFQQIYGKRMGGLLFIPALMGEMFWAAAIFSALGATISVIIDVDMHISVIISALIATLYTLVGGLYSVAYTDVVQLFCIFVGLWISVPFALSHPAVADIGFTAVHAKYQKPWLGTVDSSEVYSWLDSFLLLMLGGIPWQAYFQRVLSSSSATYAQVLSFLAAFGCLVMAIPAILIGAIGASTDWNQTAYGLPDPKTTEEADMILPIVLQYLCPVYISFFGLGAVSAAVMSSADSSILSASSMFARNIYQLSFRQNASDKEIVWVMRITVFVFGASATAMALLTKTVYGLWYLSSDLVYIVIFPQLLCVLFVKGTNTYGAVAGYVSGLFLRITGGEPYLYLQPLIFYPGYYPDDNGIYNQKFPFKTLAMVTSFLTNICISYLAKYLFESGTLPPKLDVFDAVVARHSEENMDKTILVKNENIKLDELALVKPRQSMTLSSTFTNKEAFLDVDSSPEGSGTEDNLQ

[3] = growth suppression of beta-catenin-knockout colon cells, dose response, cell-based, HCT116, human colon tumor (AID 1045); format: functional;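 further: HCT116 colon tumor cells with beta catenin knocked out; cells exposed to compound for 60 hours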
[4] = biological target: Induced myeloid leukemia cell differentiation protein Mcl-1 (Homo sapiens, UniProt Q07820); format: functional
[5] = biological target: T2, Polyadenylate-binding protein 1 (Homo sapiens, UniProt P11940); assay: PABP1 MLLE–PAM2 binding inhibitor potency, dose response, biochemical, fluorescence polarization, FITC-PAM2 peptide (AID 602259); format: functional; settings: read-out: IC50_Mean
[6] = HepG2 cell cytotoxicity, dose response, cytotoxicity control for Shn3 inhibitor project, CellTiter-Glo, cherry-picked (AID 624134); format: functional, cell-based
[7] = Shn3 3'UTR reporter inhibitors, dose response, cell-based, Clone20 osteoblasts, firefly luciferase, cherry-picked (AID 624132); format: functional;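 further: firefly luciferase luminescence from reporter carrying the Shn3 3'UTR in osteoblasts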
[8] = biological target: T2, Polyadenylate-binding protein 1; assay: PABP1 MLLE–PAM2 interaction inhibitors, dose response, miRNA deadenylation inhibitor project, biochemical, fluorescence polarization, Cy5-PAM2 peptide, secondary (AID 602260); format: functional; settings: read-out: IC50_Mean
[9] = biological target: Glyceraldehyde-3-phosphate dehydrogenase (Homo sapiens, UniProt P04406)
Paired box protein Pax-8 = Paired box protein Pax-8 (Homo sapiens, UniProt Q06710); assay: inhibitors of PAX8-driven TPO luciferase reporter, dose response, RMG-I cells, cherry-pick (AID 687027); format: functional, cell-based;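 further: luciferase reporter driven by Pax8 target thyroperoxidase promoter measured by SteadyGlo luminescence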
[10] = microbe, parasite or virus in culture; format: functional; settings: Mycobacterium tuberculosis
P388 = assay: cells; format: functional; settings: Mus musculus
SN12K1 = assay: cells; format: functional; settings: Homo sapiens
P388/ADR = assay: cells; format: functional; settings: Mus musculus
H9c2 = assay: cells; format: functional, cell-based; settings: Rattus norvegicus, H9c2, Myocardium;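 further: confirmatory concentration-response retest of ultra-high-throughput screening hits for modulation of myocardial damage; cell death induced by hydrogen peroxide oxidative stress; compound pretreatment for 60 min then peroxide exposure for 2 h; potency is for protecting the cells against peroxide damage rather than for killing them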
[11] = Luminescence Cell-Based Dose Retest to Confirm Inhibitors of Cancer Stem Cells. [Related pubchem assays (depositor defined):AID2717, AID2721]; format: functional; settings: Homo sapiens
[12] = HEp-2 cell cytotoxicity, dose response, cytotoxicity control for RSV inhibitor project, HTS (AID 2410); format: functional; settings: human respiratory syncytial virus
Fatty acid synthase [13] = biological target: T3, Fatty acid synthase (Homo sapiens, UniProt P49327); assay: FAS thioesterase domain inhibitors, dose response, biochemical, kinetic fluorescence intensity (AID 624326); format: functional;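 further: rate of fluorescence rise from hydrolysis of a fluorogenic O-methyl fluorescein ester substrate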
Fatty acid synthase [14] = biological target: T3, Fatty acid synthase; assay: FAS thioesterase domain inhibitors, dose response, biochemical, endpoint fluorescence intensity, uHTS hits (AID 624327); format: functional;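 further: fluorescence from hydrolysis of an O-methyl fluorescein acyl ester substrate by the enzyme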
[15] = NIH-3T3 fibroblast cytotoxicity, dose response, cytotoxicity control, cell-based, fluorescence, Alamar Blue, secondary assay (AID 2327); format: functional;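 further: NIH-3T3 mouse fibroblasts cultured with fluconazole at 8 µg/mL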
[16] = C. albicans growth with fluconazole, confirmation, fluorescence, retest (AID 2467); format: functional, cell-based
[17] = THP-1 cell cytotoxicity, dose response, cytotoxicity control for non-replicating M. tuberculosis project (AID 489025); format: functional
[18] = control 3'UTR Renilla luciferase suppression, dose response, counter-screen for Shn3 inhibitor project, cell-based, Clone20-Shn3RL, cherry-picked (AID 624133); format: functional
[19] = cytotoxicity toward NIH3T3 fibroblasts, dose response, counter-screen, cell-based, ATP luminescence, mouse fibroblasts (AID 2010); format: functional;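 further: cells exposed to compound for about 90 hours before reading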
[20] = inhibitors of intracellular T. cruzi replication, confirmation, NIH3T3 host cells, beta-gal luminescence (AID 2044); format: functional, cell-based;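 further: intracellular parasites grown in NIH/3T3 mouse fibroblasts as host cells; luminescent beta-galactosidase reporter signal from transgenic T. cruzi replicating inside host cells; inhibitors lower the luminescence signal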

Sequence of Glyceraldehyde-3-phosphate dehydrogenase (P04406 whole entry): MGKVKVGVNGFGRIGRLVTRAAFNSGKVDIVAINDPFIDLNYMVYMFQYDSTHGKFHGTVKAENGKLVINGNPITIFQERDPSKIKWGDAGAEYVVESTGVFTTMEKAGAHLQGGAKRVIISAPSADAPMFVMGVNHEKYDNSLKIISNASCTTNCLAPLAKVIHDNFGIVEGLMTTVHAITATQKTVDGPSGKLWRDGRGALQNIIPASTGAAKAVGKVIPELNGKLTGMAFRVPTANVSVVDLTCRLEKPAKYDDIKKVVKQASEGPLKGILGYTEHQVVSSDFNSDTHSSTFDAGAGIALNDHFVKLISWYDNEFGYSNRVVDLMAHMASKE
T3 sequence (P49327 whole entry, the tested form may be a part): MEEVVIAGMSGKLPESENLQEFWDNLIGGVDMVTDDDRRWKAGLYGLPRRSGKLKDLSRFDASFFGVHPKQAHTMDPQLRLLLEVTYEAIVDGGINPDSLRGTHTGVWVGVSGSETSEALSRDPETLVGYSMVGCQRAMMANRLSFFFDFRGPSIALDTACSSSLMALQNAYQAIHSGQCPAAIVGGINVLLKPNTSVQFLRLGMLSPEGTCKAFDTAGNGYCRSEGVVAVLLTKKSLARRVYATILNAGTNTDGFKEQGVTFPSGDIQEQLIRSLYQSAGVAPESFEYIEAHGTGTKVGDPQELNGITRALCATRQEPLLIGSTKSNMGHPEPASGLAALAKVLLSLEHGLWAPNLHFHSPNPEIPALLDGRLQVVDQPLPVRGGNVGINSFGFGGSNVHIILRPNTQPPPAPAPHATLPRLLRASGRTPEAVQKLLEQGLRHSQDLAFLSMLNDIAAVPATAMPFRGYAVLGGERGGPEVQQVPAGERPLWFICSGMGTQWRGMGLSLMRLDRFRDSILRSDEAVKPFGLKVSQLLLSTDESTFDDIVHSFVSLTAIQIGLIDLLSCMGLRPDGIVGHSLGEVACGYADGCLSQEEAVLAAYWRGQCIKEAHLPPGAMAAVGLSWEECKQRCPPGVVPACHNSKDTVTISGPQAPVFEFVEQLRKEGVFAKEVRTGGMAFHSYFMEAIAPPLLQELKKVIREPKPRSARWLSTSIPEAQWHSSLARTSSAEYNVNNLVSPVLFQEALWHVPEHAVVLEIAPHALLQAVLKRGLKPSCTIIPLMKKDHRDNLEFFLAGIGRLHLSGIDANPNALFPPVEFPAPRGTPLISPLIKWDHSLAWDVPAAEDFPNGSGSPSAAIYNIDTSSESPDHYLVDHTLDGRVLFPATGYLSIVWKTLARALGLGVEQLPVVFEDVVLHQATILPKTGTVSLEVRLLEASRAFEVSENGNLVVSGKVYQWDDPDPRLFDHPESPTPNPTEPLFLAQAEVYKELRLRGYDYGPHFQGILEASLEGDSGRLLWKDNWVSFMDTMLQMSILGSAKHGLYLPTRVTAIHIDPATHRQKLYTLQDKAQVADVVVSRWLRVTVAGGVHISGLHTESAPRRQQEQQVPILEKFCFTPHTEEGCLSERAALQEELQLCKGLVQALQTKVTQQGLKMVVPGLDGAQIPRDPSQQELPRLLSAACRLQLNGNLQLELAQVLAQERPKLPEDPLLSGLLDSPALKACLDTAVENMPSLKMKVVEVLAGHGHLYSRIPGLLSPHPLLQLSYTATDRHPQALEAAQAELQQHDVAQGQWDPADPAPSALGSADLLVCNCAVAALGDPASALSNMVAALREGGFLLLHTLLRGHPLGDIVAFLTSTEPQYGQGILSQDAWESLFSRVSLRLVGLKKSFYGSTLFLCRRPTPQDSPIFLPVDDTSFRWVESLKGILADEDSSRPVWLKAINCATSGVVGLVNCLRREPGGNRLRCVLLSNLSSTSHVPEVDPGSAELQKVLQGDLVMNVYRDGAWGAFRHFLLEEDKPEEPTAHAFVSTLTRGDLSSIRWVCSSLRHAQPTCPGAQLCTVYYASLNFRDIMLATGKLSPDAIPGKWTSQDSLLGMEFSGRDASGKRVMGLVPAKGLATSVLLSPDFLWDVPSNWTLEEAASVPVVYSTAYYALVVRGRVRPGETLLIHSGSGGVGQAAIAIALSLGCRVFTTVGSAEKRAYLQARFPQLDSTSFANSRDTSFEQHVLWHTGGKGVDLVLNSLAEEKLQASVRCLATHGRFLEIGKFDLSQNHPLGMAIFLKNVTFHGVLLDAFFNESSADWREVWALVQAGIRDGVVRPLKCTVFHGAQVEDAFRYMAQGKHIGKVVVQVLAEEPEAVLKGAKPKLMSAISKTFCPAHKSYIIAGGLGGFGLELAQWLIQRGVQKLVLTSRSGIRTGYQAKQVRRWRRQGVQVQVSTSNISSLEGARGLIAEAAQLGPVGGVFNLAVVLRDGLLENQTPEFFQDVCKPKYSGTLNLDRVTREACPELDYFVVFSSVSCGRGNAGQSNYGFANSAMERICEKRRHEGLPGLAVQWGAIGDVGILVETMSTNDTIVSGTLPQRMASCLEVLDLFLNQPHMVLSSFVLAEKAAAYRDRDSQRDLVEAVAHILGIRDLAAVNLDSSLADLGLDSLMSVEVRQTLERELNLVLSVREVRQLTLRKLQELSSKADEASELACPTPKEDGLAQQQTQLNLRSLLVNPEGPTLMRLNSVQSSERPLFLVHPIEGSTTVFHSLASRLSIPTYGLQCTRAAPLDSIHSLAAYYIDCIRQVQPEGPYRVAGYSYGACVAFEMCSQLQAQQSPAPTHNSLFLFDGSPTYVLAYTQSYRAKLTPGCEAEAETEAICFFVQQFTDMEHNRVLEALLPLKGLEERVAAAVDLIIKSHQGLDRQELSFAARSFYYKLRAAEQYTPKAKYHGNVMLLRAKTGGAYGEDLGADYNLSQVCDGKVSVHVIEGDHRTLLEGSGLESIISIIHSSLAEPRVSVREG
Sequence of Paired box protein Pax-8 (Q06710 whole entry): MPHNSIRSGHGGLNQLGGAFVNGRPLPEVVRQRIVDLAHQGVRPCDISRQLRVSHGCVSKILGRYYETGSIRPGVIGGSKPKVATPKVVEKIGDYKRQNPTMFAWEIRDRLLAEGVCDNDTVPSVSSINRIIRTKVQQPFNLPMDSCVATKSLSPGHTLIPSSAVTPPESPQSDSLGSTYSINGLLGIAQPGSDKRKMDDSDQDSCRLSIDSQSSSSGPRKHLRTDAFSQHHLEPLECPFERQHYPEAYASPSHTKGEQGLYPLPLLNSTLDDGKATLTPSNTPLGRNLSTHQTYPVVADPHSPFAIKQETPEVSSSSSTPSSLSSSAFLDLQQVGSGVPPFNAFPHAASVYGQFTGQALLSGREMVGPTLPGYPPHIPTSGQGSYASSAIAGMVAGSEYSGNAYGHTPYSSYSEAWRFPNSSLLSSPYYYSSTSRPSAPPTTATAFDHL
Sequence of Induced myeloid leukemia cell differentiation protein Mcl-1 (Q07820 whole entry): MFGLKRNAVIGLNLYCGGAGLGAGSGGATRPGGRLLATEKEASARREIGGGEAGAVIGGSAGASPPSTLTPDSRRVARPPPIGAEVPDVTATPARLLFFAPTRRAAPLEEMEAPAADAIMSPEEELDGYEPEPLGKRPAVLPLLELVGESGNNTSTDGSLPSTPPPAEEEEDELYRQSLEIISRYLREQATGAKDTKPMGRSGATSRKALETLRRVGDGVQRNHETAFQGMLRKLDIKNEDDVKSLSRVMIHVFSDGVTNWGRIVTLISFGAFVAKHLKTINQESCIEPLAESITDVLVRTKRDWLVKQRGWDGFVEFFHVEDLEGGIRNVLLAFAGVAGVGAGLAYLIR
T2 sequence (P11940 whole entry): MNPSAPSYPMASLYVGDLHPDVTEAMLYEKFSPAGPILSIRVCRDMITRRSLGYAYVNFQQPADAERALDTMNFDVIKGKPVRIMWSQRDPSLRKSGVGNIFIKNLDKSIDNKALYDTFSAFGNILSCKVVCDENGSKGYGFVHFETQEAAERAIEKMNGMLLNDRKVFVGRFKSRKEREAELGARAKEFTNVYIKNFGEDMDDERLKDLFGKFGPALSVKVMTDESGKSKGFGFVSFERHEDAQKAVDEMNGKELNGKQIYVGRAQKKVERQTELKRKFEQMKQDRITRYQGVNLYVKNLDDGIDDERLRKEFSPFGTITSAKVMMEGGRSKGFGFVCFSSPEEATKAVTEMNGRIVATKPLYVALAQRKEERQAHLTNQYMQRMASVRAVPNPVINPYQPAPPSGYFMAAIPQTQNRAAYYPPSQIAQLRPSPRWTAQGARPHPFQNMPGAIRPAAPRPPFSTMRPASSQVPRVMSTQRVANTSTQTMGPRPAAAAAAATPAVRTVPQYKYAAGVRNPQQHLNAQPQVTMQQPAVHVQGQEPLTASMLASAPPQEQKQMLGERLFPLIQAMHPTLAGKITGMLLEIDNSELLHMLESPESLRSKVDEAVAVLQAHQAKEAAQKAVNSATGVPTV

Compound: CCCn1c(CN2CCN(c3cccc(Cl)c3)CC2)nc2c1c(=O)n(C)c(=O)n2C
- EC50 [1]: 39.9 µM (active)
- IC50 [2]: 14.2 µM (active)
- EC50 [3]: 33.1 µM (active)

Compound: COCCCNCCOCCOc1ccc(Cl)cc1C(C)(C)C
- EC50 [1]: 14.9 µM (active)
- EC50 [3]: 14.3 µM (active)

Compound: N#C/C(=C\c1ccc(C(=O)O)cc1)c1nc(O)c2c3c(sc2n1)CCCC3
- IC50 [4]: 3.52 µM (active)

Compound: CN(C)CCN1C(=O)c2cccc3cc([N+](=O)[O-])cc(c23)C1=O [MITONAFIDE]
- IC50 [5]: 43.4 µM (inactive)
- AC50 [6]: 2.2 µM (active)
- AC50 [7]: 1.11 µM (active)
- IC50 [8]: > 66 µM (inactive)

Compound: CN(C)C1=C(Cl)C(=O)N(c2ccnc(Cl)c2)C1=O
- IC50 [9]: > 50 µM (inconclusive)

Compound: CCO[C@H]1OC(C(=O)N2CCN(Cc3ccccc3)CC2)=C[C@@H](c2ccc(C(F)(F)F)cc2)[C@@H]1CCCO
- AC50 (Paired box protein Pax-8): 14.3 µM (active)

Compound: COc1ccc(NC(=O)c2ccccc2N(Cc2ccccc2)S(C)(=O)=O)cc1
- IC50 [4]: 40.6 µM (not active)

Compound: CCCC#Cc1ccc([C@@H]2[C@H]3CN(S(=O)(=O)c4ccccc4F)CCCCN3[C@H]2CO)cc1
- AC50 (Paired box protein Pax-8): 22.4 µM (active)

Compound: O=C(C[C@@H]1C[C@H]2c3cc(NC(=O)C4CCOCC4)ccc3O[C@H]2[C@H](CO)O1)NCc1ccc(Oc2ccccc2)cc1
- AC50 (Paired box protein Pax-8): 34.3 µM (active)

Compound: Cc1cc(NS(=O)(=O)c2ccc(NC(=O)C(F)(F)F)cc2)no1
- IC50 [9]: > 100 µM (not active)

Compound: Cc1nc2ccccc2c2nc3ccccc3n12
- CC50 [10]: > 40 µM (active)

Compound: NC(CSC(c1ccccc1)(c1ccccc1)c1ccccc1)C(=O)O (centres undefined)
- GI50 (P388): 0.494 µM (active)
- GI50 (SN12K1): 0.352 µM (active)
- GI50 (P388/ADR): 5.43 µM (inactive)

Compound: Cn1nc(-c2ccccc2F)c2cc(C(=O)Nc3ccc4c(c3)OCCO4)sc21
- IC50 (H9c2): > 79 µM (inactive)
- CC50 [10]: > 40 µM (active)
- AC50 [11]: 3.48 µM (active)
- CC50 [12]: 26.9 µM (active)

Compound: Cc1cc(NC(=O)COC(=O)c2cc([N+](=O)[O-])ccc2N2CCOCC2)ccc1Br
- IC50 (Fatty acid synthase [13]): 4.33 µM (active)
- IC50 (Fatty acid synthase [14]): 2.82 µM (active)

Compound: N=C(N)SCc1cccc([N+](=O)[O-])c1
- GI50 (P388): 15.5 µM (inactive)
- GI50 (SN12K1): 32.7 µM (inactive)
- GI50 (P388/ADR): 15.7 µM (inactive)

Compound: O=C(NN1C(=O)C2C(c3ccccc3)C=CC(c3ccccc3)C2C1=O)c1cccc(Br)c1 (centres undefined)
- IC50 (Fatty acid synthase [13]): 9.22 µM (active)
- IC50 (Fatty acid synthase [14]): 12.1 µM (active)

Compound: Cc1cc(C)cc(NC(=O)c2ccc(Cn3nc(C)c(Cl)c3C)o2)c1
- CC50 [10]: > 40 µM (active)
- CC50 [12]: 23.5 µM (active)

Compound: O=[N+]([O-])c1cccc(S(=O)(=O)NCc2ccncc2)c1
- AC50 [6]: 48.4 µM (active)
- AC50 [7]: 3.09 µM (active)

Compound: CC(=O)Oc1cc2c(cc1OC(C)=O)OCC(c1ccc(C)cc1)C2 (centres undefined)
- GI50 (P388): 2.87 µM (inactive)
- GI50 (SN12K1): 14 µM (inactive)
- GI50 (P388/ADR): 3.05 µM (inactive)

Compound: Cc1nn(-c2ccccc2)c(N)c1N=Nc1ccc(Cl)cc1
- EC50 [15]: 22.8 µM (inconclusive)
- EC50 [16]: 5.82 µM (active)
- CC50 [10]: > 40 µM (active)

Compound: CCOc1nc(SCCOc2ccc(C)cc2)nc(N(C)C)n1
- EC50 [1]: 45 µM (active)
- EC50 [3]: 56.2 µM (active)

Compound: NS(=O)(=O)OCCCCCCCOS(N)(=O)=O
- GI50 (P388): 35.1 µM (inactive)
- GI50 (SN12K1): 273 µM (inactive)
- GI50 (P388/ADR): > 83 µM (inactive)

Compound: Cc1ccc(N2C(=O)C(Cl)=C(N3CCOCC3)C2=O)cc1
- IC50 [9]: > 50 µM (inconclusive)

Compound: Clc1ccc(CN2C3=NCCCN3c3ccccc32)cc1
- CC50 [17]: > 40 µM (active)

Compound: COc1cccc(N2C(=O)C(Cl)=C(N3CCN(CCO)CC3)C2=O)c1
- IC50 [9]: > 50 µM (inconclusive)

Compound: COc1ccccc1Cc1c(-c2ccco2)nc2c(C)cc(Br)cn12
- AC50 [6]: 45.6 µM (active)
- AC50 [7]: 1.9 µM (active)
- AC50 [18]: 5.7 µM (active)

Compound: COc1cc(CNCCc2ccc(S(N)(=O)=O)cc2)ccc1OCc1ccc(Cl)cc1
- EC50 [19]: > 60 µM (not active)
- EC50 [1]: 9.48 µM (active)
- EC50 [3]: 7.47 µM (active)
- EC50 [20]: 0.43 µM (active)

Compound: COc1cccc(-c2ccc3c(c2)[C@@H]2[C@@H](CCN2C(=O)NC2CCCCC2)[C@H](CO)N3C)c1
- AC50 (Paired box protein Pax-8): 10.9 µM (active)

Compound: c1cc2c3c(c1)c1cc4c(cc1c[n+]3CC2)OCO4 [ANHYDROLYCORINIUM CHLORIDE]
- GI50 (P388): 0.515 µM (active)
- GI50 (SN12K1): 1.95 µM (inactive)
- GI50 (P388/ADR): 22 µM (inactive)

Compound: COC(=O)c1ccc(C2c3c(oc4ccc(Cl)cc4c3=O)C(=O)N2CCN2CCOCC2)cc1 (centres undefined)
- IC50 (Fatty acid synthase [13]): 11.6 µM (active)
- IC50 (Fatty acid synthase [14]): 14.6 µM (active)

Compound: CC(C)(C)C(=O)/C(=C\c1cccc([N+](=O)[O-])c1)n1cncn1
- CC50 [10]: 4.33 µM (active)

Compound: CC(C)(C)OC(=O)NCCc1onc(-c2cccc([N+](=O)[O-])c2)c1C(=O)O
- IC50 (Fatty acid synthase [13]): 1.16 µM (active)
- IC50 (Fatty acid synthase [14]): 1.47 µM (active)

Compound: CCOc1cc(/C=C2/S/C(=N/c3ccccc3)N(Cc3cccnc3)C2=O)ccc1OCC#N
- EC50 [1]: 26.9 µM (active)
- EC50 [3]: 32.5 µM (active)

Compound: Fc1cccc(Cc2noc(CN3CCC(c4ccncc4)CC3)n2)c1
- EC50 [19]: > 60 µM (not active)
- IC50 [2]: 14.5 µM (active)
- EC50 [20]: 2.11 µM (active)

Compound: O=C(C1=C[C@@H](c2ccc(C(F)(F)F)cc2)C[C@@H](OCc2ccc(CO)cc2)O1)N1CCN(Cc2ccccc2)CC1
- IC50 [4]: 1.48 µM (not active)

Compound: CC(C)n1c(O)c(N=NC(=O)Cc2csc(N3CCOCC3)n2)c2ccccc21
- IC50 [2]: 13.5 µM (active)

Compound: CC(=C/c1ccccc1)/C=N/Nc1nc(N2CCCCC2)nc(N2CCCCC2)n1
- EC50 [1]: 24 µM (active)
- EC50 [3]: 21.6 µM (active)

Compound: O=P(NCCCO)(OCc1ccccc1)N(CCCl)CCCl (centres undefined)
- GI50 (P388): > 100 µM (inactive)
- GI50 (SN12K1): > 100 µM (inactive)
- GI50 (P388/ADR): > 100 µM (inactive)

Compound: O=C(c1ccc(Cl)c(S(=O)(=O)N2CCCC2)c1)N1CCN(c2ccccc2)CC1
- IC50 [2]: 6.61 µM (active)

Compound: Cc1ccc(-c2csc3nc(C(C)C)oc(=O)c23)c(C)c1
- IC50 (Fatty acid synthase [13]): 0.761 µM (active)
- IC50 (Fatty acid synthase [14]): 1.32 µM (active)

Compound: CCOC(=O)c1cnc2c(C)cc(Cl)cc2c1N1CCN(C)CC1
- IC50 [2]: 11.5 µM (active)

Compound: CN1CCC23c4ccccc4NC1C21CCN(C)C3Nc2ccccc21
- GI50 (P388): 57.7 µM (inactive)
- GI50 (SN12K1): 202 µM (inactive)
- GI50 (P388/ADR): > 254 µM (inactive)
